Results: publication PMC8406304, “Inhibiting Type VI Secretion System Activity with a Biomimetic Peptide Designed To Target the Baseplate Wedge Complex” (mBio, 2021)
“Also recorded” adds a separate entry of the source.

System: TssK-L14A
Assay: Isothermal titration calorimetry (ITC), TssK-L14A variant
Type: binding, enteroaggregative Escherichia coli (EAEC)
Conditions: 25 μM TssK-L14A, 1 mM wild-type BCP, 50 mM HEPES pH 7.0, 150 mM NaCl, 25°C
Method: To evaluate the direct interaction between the BCP and its target TssK, we performed isothermal titration calorimetry (ITC) experiments. The wild-type BCP and TssK interact with an observable affinity (KD) of 60 μM (Fig. 5A).
The working buffer for both proteins and peptide was 50 mM HEPES (pH 7.0), 150 mM NaCl to avoid buffer mismatch. The experiments were performed at 25°C using the MicroCal PEAQ-ITC instrument (Malvern Panalyticals, Malvern, UK) in duplicate with 19 injections, first with an initial injection of 0.4 μl followed by 18 injections of 2 μl. Two assays were performed. In the first, 25 μM WT TssK ligand was in the cell and 1 mM WT BCP analyte was in the syringe. In the second, 25 μM TssK L14A ligand was in the cell and 1 mM WT BCP analyte was in the syringe. The reaction was performed with a constant stirring speed of 750 rpm; each injection lasted for 4 s with a 150-s space between injections. A constant heat control (offset) was removed from the raw data to account for heat dilution before integration. The data were fitted using the One Set of Sites model in the PEAQ-ITC analysis software.

## SRPVMG-SRPVMG-SRPVMG (head to tail) [BCP, biomimetic cyclic peptide SRPVMG-SRPVMG-SRPVMG mimicking TssG foot 1]
  ITC binding signal with TssK-L14A: None of these conditions led to a detectable ITC binding signal; also recorded: lack of binding
